Test results reported in US11214577B2, “Morphinans useful for treating medical disorders” (priority 2019, dated 2022).
Like-named read-outs stand apart in the source and are kept apart here.

Legend:
[1] = target: T1, recombinant human mu opioid receptor (Homo sapiens, UniProt P35372); test: Opioid receptor radioligand binding assay, mu; settings: for IC50: radioligand [3H]DAMGO 0.5 nM; for Selectivity μ/k: ratio of Mu IC50 to Kappa IC50
T1 construct: expressed in transfected cells; host or cells: HEK293 (membranes)

[2] = target: T2, recombinant human kappa opioid receptor (Homo sapiens, UniProt P41145); test: biochemical; settings: membranes of HEK293 cells; radioligand [3H]diprenorphine 0.5 nM; read-out: Binding Affinity Kappa IC50
T2 construct: expressed in transfected cells; host or cells: HEK293 (membranes)

[3] = target: T3, recombinant human delta opioid receptor (Homo sapiens, UniProt P41143); test: Opioid receptor radioligand binding assay, delta; settings: for IC50: radioligand [3H]DADLE 0.5 nM; for Selectivity δ/k: ratio of Delta IC50 to Kappa IC50
T3 construct: expressed in transfected cells; host or cells: HEK293 (membranes)

[4] = target: T2, recombinant human kappa opioid receptor; test: cell-based; type: cell-based; settings: for EC50: read-out: Cell Assay (FLIPR Calcium) Kappa EC50
[5] = Binding Affinity Mu IC50, membranes of HEK293 cells
[6] = Binding Affinity Delta IC50, membranes of HEK293 cells
[7] = membranes of HEK293 cells, read-out: Binding Affinity Mu IC50
[8] = membranes of HEK293 cells, read-out: Binding Affinity Delta IC50

T3 sequence (P41143 whole entry): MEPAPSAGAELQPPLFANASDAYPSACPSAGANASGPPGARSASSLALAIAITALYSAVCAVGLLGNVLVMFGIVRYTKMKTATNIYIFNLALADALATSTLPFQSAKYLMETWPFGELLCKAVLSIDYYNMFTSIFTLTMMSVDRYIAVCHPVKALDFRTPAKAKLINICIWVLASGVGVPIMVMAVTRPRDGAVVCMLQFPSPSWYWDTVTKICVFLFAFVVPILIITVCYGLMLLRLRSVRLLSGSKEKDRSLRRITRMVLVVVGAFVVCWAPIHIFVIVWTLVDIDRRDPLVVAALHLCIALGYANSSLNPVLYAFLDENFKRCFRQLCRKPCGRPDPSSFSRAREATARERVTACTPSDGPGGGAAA
T2 sequence (P41145 whole entry): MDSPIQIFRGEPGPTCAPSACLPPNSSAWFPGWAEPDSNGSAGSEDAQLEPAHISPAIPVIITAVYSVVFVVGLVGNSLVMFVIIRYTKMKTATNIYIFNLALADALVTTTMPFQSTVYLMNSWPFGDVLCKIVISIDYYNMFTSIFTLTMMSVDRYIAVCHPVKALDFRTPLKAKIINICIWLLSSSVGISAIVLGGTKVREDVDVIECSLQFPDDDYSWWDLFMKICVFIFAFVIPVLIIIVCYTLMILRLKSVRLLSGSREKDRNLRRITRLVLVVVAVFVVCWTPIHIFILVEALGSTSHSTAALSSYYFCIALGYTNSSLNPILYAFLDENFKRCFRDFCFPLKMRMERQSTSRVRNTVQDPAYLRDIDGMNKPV
T1 sequence (P35372 whole entry): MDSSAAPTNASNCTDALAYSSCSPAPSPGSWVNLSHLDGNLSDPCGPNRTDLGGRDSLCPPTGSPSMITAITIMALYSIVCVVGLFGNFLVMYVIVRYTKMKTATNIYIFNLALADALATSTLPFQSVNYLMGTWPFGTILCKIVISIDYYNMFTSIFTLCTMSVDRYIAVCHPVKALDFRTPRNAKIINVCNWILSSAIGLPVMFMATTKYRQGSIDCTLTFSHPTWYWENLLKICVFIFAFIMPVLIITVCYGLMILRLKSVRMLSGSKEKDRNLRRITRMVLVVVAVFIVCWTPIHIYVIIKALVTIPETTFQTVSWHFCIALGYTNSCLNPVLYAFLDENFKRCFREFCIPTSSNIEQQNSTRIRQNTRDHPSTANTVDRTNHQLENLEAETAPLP

Row | Compound | IC50 [1, 5] [nM] | Selectivity μ/k [1] | IC50 [2] [nM] | IC50 [3, 6] [nM] | Selectivity δ/k [3] | IC50 [1, 7] [nM] | IC50 [3, 8] [nM] | EC50 [4] [nM] | FLIPR calcium cell assay compared with reference ([4]; comparison in words on Table 2)
1 | CN(C(=O)C1CC1c1ccc(O)cc1)C1CCC2(O)C3Cc4ccc(O)c5c4C2(CCN3CC2(O)CC2)C1O5 (single isomer, unassigned) [Compound 20a] | 119 | 1.12 | 102 | 161 | 1.57 |  |  |  | 
2 | CN(C(=O)C1CC1c1ccsc1)C1CCC2(O)C3Cc4ccc(O)c5c4C2(CCN3CC2(O)CC2)C1O5 (single isomer, unassigned) [Compound 18a] | 1.58 | 1.63 | 0.97 | 10.9 | 11.3 |  |  |  | 
3 | 17-cyclopropylmethyl-10-oxo-4,5α-epoxy-3,14β-dihydroxy-6β-((1R,2R)—N-methyl-2-(3-(4-hydroxylphenyl)-cyclopropanecarboxamido)morphinan [Compound 23b] |  | 118.9 | 0.62 |  | 1331 | 73.7 | 528 |  | 
4 | CN(C(=O)[C@@H]1C[C@H]1c1ccc(O)cc1)[C@@H]1CC[C@@]2(O)[C@H]3Cc4ccc(O)c5c4[C@@]2(CCN3CC2(O)CC2)[C@H]1O5 [Compound 21b] | 114 | <0.57 | > 200 | 385 | <1.93 |  |  |  | 
5 | 17-cyclopropylmethyl-10-oxo-4,5α-epoxy-3,14β-dihydroxy-6β-((1S,2S)—N-methyl-2-(3-(4-hydroxylphenyl)-cyclopropanecarboxamido)morphinan [Compound 23a] |  | 174.3 | 0.07 |  | 3731 | 12.2 | 261 |  | 
6 | CN(C(=O)[C@H]1C[C@@H]1c1ccoc1)[C@H]1CC[C@@]2(O)[C@H]3Cc4ccc(O)c5c4[C@@]2(CCN3CC2CC2)[C@H]1O5 [Compound 7a, 17-Cyclopropylmethyl-4,5α-epoxy-3,14β-dihydroxy-6α-((1S,2S)—N-methyl-2-(3-furyl)-cyclopropanecarboxamido)morphinan] | 0.3 | 5.85 | 0.05 | 0.66 | 12.6 |  |  | 6.86 | 
7 | CN(C(=O)[C@@H]1C[C@H]1c1ccoc1)[C@H]1CC[C@@]2(O)[C@H]3Cc4ccc(O)c5c4[C@@]2(CCN3CC2CC2)[C@H]1O5 [Compound 7b, 17-Cyclopropylmethyl-4,5α-epoxy-3,14β-dihydroxy-6α-((1R,2R)—N-methyl-2-(3-furyl)-cyclopropanecarboxamido)morphinan] | 0.52 | 2.16 | 0.24 | 0.68 | 2.82 |  |  | 3.76 | 
8 | CN(C(=O)C1CC1c1ccc(O)cc1)C1CCC2(O)C3Cc4ccc(O)c5c4C2(CCN3CC2(O)CC2)C1O5 (single isomer, unassigned) [Compound 21a] | 1.25 | 1.47 | 0.85 | 30.2 | 35.6 |  |  |  | 
9 | CN(C(=O)C1CC1c1ccsc1)C1CCC2(O)C3Cc4ccc(O)c5c4C2(CCN3CC2(O)CC2)C1O5 (single isomer, unassigned) [Compound 18b] | 76.8 | 12.5 | 6.15 | 118 | 19.2 |  |  |  | 
10 | CN(C(=O)[C@H]1C[C@@H]1c1ccoc1)[C@@H]1CC[C@@]2(O)[C@H]3Cc4ccc(O)c5c4[C@@]2(CCN3CC2(O)CC2)[C@H]1O5 [Compound 17a, 17-(1-hydroxylcyclopropylmethyl)-4,5α-epoxy-3,14β-dihydroxy-6β-((1S,2S)—N-methyl-2-(3-furyl)-cyclopropanecarboxamido)morphinan] | 4.96 | 4.07 | 1.22 | 43.1 | 35.3 |  |  |  | 
11 | CN(C(=O)[C@@H]1C[C@H]1c1ccsc1)[C@@H]1CC[C@@]2(O)[C@H]3Cc4ccc(O)c5c4[C@@]2(CCN3CC2(O)CC2)[C@H]1O5 [Compound 19b] | 5.98 | 13.0 | 0.46 | 147 | 319 |  |  |  | 
12 | CN(C(=O)C1CC1c1ccoc1)C1CCC2(O)C3Cc4ccc(O)c5c4C2(CCN3CC2(O)CC2)C1O5 (single isomer, unassigned) [Compound 16a] | 1.55 | 1.65 | 0.94 | 5.46 | 5.80 |  |  |  | 
13 | CN(C(=O)[C@H]1C[C@@H]1c1ccoc1)[C@@H]1CC[C@@]2(O)[C@H]3Cc4ccc(O)c5c4[C@@]2(CCN3CC2CC2)[C@H]1O5 [Compound 5a, 17-Cyclopropylmethyl-4,5α-epoxy-3,14β-dihydroxy-6β-((1S,2S)—N-methyl-2-(3-furyl)-cyclopropanecarboxamido)morphinan] | 10.7 |  | 0.42 | 86.5 | 207.59 |  |  | 2.64 | improved cell assays over U-69596
14 | CN(C(=O)C1CC1c1ccsc1)C1CCC2(O)C3Cc4ccc(O)c5c4C2(CCN3CC2(O)CC2)C1O5 (single isomer, unassigned) [Compound 19a] | 1.37 | 8.05 | 0.17 | 16.3 | 96.1 |  |  |  | 
15 | CN(C(=O)C1CC1c1ccoc1)C1CCC2(O)C3Cc4ccc(O)c5c4C2(CCN3CC2(O)CC2)C1O5 (single isomer, unassigned) [Compound 16b] | 7.18 | 1.07 | 6.74 | 34 | 5.05 |  |  |  | 
16 | CN(C(=O)[C@@H]1C[C@H]1c1ccc(O)cc1)[C@H]1CC[C@@]2(O)[C@H]3Cc4ccc(O)c5c4[C@@]2(CCN3CC2(O)CC2)[C@H]1O5 [Compound 20b] | 8.08 | 0.50 | 16 | 11.8 | 0.73 |  |  |  | 
17 | CN(C(=O)[C@@H]1C[C@H]1c1ccoc1)[C@@H]1CC[C@@]2(O)[C@H]3Cc4ccc(O)c5c4[C@@]2(CCN3CC2(O)CC2)[C@H]1O5 [Compound 17b] | 45.4 | 6.99 | 6.49 | 71.6 | 11.0 |  |  |  | 
18 | CN(C(=O)[C@@H]1C[C@H]1c1ccoc1)[C@@H]1CC[C@@]2(O)[C@H]3Cc4ccc(O)c5c4[C@@]2(CCN3CC2CC2)[C@H]1O5 [Compound 5b, 17-Cyclopropylmethyl-4,5α-epoxy-3,14β-dihydroxy-6β-((1R,2R)—N-methyl-2-(3-furyl)-cyclopropanecarboxamido)morphinan] | 3.47 | 0.45 | 7.76 | 69 | 8.90 |  |  | 9.7 | 
